The text below walks through data of patent US20220257557A1, “PHARMACEUTICAL COMPOSITION FOR PREVENTING OR TREATING NEUROLOGICAL DISEASES” (GLACEUM INC., priority 2019, published 2022).

Structures are written as SMILES.

The subject of assay [1] is SH-SY5Y cells. The assay is described as follows: Cell death from MPP+ mitochondrial damage, MTT cell viability. The format is cell-based, Human. The conditions noted are these: 1 mM MPP+ 24 h, then 0.0001-1 μM compound 24 h, FIG. 2. The protocol: (§1) Human neuronal SH-SY5Y cells were cultured in a 1:1 DMEM/F12 medium containing 10% FBS (fetal bovine serum) at 37° C. under 5% carbon dioxide and 95% air. The cultured cells were transferred to a 96-well cell culture plate at a density of 2*10^4 cells/well and cultured for 24 hours. Thereafter, after replacement with serum-restricted medium (1:1 DMEM/F12 medium containing 0.5% FBS), the cells were cultured for 16 hours. Then, the cultured cells were treated with 1 mM MPP+ (1-methyl-4-phenylpyridinium) and cultured for 24 hours, thus inducing mitochondrial dysfunction in the cells. […]
Each of the cultures obtained in Experimental Example 3-1 was treated with 0.2 mg/ml of 3-(4,5-dimethylthiazol-2-yl)-2,5-diphenyl-tetrazolium bromide (MTT; Sigma-Aldrich) and cultured for 4 hours. The MTT formazan precipitate formed by the viable cells was dissolved in 100 μl of 0.04N hydrochloric acid/isopropanol, and the absorbance at 540 nm was measured using an ELISA microplate reader (Molecular Devices).
The absorbances of controls were measured in the same manner as the above-described method, except for using a sample to which DMSO was added (normal control) instead of MMP+ and the compound of Formula III-1 and a sample to which the compound of Formula III-1 was not added (negative control).
The cell viability percentage was calculated from the absorbance.

For assay [2], the system named is SH-SY5Y cells. The assay is described as follows: Reactive oxygen species generation (DCF-DA) after MPP+. It is filed as cell-based, Human. To be noted: 1 mM MPP+ 24 h, then 0.0001-1 μM compound 24 h, FIG. 4. The protocol: as §1
Based on the principle that 2′,7′-dichlorofluorescein diacetate (DCF-DA) is oxidized to fluorescent DCF by reaction with reactive oxygen species, the level of reactive oxygen species generation was measured. […] Then, the fluorescence intensity of DCF at an excitation wavelength of 485 nm and an emission wavelength of 535 nm and the fluorescence intensity of bisbenzimide at an excitation wavelength of 335 nm and an emission wavelength of 460 nm were measured using a fluorescence analyzer to determine the level of reactive oxygen species generation. […]
The concentration of DCF determined from the fluorescence intensity was expressed as a percentage of the normal control.

The subject of a further assay is BV2 cells. The assay is described as follows: IL-1β, IL-6 and TNF-α mRNA expression after LPS (RT-PCR). It is filed as cell-based. The conditions noted are these: 3 h pretreatment (Table 3 amounts), LPS 1 μg/ml 6 h. Put shortly: (§2)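 Cells pretreated with test compounds (cytotoxicity checked by MTT), then stimulated with 1 μg/ml LPS for 6 h. IL-1β, IL-6 and TNF-α mRNA levels measured by RT-PCR.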

The test system of another assay is RAW264.7 cells. The assay is described as above. The format is cell-based. The conditions noted are these: 3 h pretreatment (Table 3 amounts), LPS 1 μg/ml 6 h. The gist of the method: as §2

Consider `CCOc1ccc(C2COc3c(ccc4c3CCC(C)(C)O4)C2)c(O)c1` (centres unmarked) [Formula III-1, 2-(8,8-dimethyl-2,3,4,8,9,10-hexahydropyrano[2,3-f]chromen-3-yl)-5-ethoxyphenol], for which the “function of mitochondria damaged by MPP+ (cell viability percentage)” value in the assay with SH-SY5Y cells [1] is on record as “restored”. The “level of intracellular reactive oxygen species generation (DCF)” value with SH-SY5Y cells [2] is given as “decreased”. In the assay with BV2 cells, the “mRNA expression level of IL-1β” value is given as “concentration-dependently decreased”, the “mRNA expression level of IL-6” value was “concentration-dependently decreased” and the “mRNA expression level of TNF-α” value is recorded as “concentration-dependently decreased”. Moreover, in the assay on RAW264.7 cells, the “mRNA expression level of IL-1β” value was “concentration-dependently decreased”, the “mRNA expression level of IL-6” value is “concentration-dependently decreased” and the “mRNA expression level of TNF-α” value is listed as “concentration-dependently decreased”.
